Assay results as given in patent publication US11208629B2, “Non-human primate induced pluripotent stem cell derived hepatocytes and uses thereof” (Hoffmann-La Roche Inc., priority 2016, dated 2021).

Experiments:
Cynomolgus IPSCs = test: Hepatocyte differentiation of cynomolgus IPSCs (supplement optimisation)
Experimental: To initialize differentiation, the cells are incubated in a defined medium comprising a Wnt pathway activator.
Generally, media change was performed every day until day 16 and afterwards every second day. Basic medium for differentiation was MT basic medium (DMEM/F12+Glutamax with insulin 7 μg/ml, monothioglycerole 450 μM, 1× Lipid concentrate, BSA 5 mg/ml, sodium selenite 14 ng/ml, 1× non-essential amino acids, heparin 2 mg/ml, transferrin 15 μg/ml, 220 μM ascorbic acid-2-phosphate) or changing to RPMI1640 medium+B27 1:50+non-essential amino acids 1:100 from day 3 of differentiation onwards. On day 1 of differentiation, medium was changed to MT basic medium with 100 ng/ml ActivinA, 10 μM Ly294002 and 1 μM CP21 (Roche GSK3β inhibitor). Then, cells were treated for two days with 100 ng/ml ActivinA, 0.25 μM LDN193189 and 1 μM CP21. At day 4, the medium was changed for three days to the supplements 50 ng/ml ActivinA, 2% knock-out serum replacement (KSR) and 0.5% DMSO. The protocol was modified to a prolonged step of high ActivinA which consisted of 100 ng/ml ActivinA at day 4 of differentiation. To induce hepatic specification, cells were maintained for four days in medium supplemented with 2% KSR, 10 ng/ml BMP4, 10 ng/ml FGF2 or FGF10 and 0.5% DMSO. […] Modification included the addition of 1 μM DAPT between day 11 and day 20. Further modifications included the change of the basis medium for maturation at day 11 to HBM medium+SingleQuots™ (Lonza).
At day 21 of differentiation, efficiency of differentiation was analyzed using two different quantification methods. First, the area covered by ALB positive cells was determined and second the area of cells with typical hepatocyte morphology was evaluated (FIG. 6A and FIG. 6B).

[1] = test system: NHP-IPSC-derived hepatocytes; test: Hepatotoxicity assay (WST-1 cell viability); type: cell-based, Cynomolgus monkey; conditions: 100 μM, 24 hours, WST-1, MACS-enriched cells in matrigel sandwich
Experimental: NHP-IPSC-derived hepatocytes were enriched using MACS and replated in matrigel sandwich condition as described above. To assess cell response to hepatotoxic compounds cells were treated with 100 μM troglitazone (Sigma) for 24 hours. Cell viability was measured using the WST-1 reagent (Sigma). 10 μl WST-1 reagent were added directly to the medium (1:10 dilution) and cells were incubated for 4 hours at 37° C., 5% CO2. Plates were stirred for 15 seconds and absorbance at 405 nm was measured.
To assess the feasibility of NHP IPSC-derived hepatocytes as model system for drug-induced liver injury, we treated the hepatocytes with Troglitazone, a small molecule with known hepatotoxic effects.

Compound: Cn1cc(C2=C(c3cccc(N)c3)C(=O)NC2=O)c2ccccc21 [CP21, 3-(3-Amino-phenyl)-4-(1-methyl-1H-indol-3-yl)-pyrrole-2,5-dione]
- efficiency of differentiation of pluripotent stem cells into hepatocytes (Cynomolgus IPSCs; CP21 1 μM, cell density 45000/cm^2, tested 0 to 2 μM, 30000 to 75000/cm^2): most efficient differentiation
- cell viability during differentiation (Cynomolgus IPSCs; CP21 concentrations above 2 μM): decreased cell viability

Compound: Cc1c(C)c2c(c(C)c1O)CCC(C)(COc1ccc(CC3SC(=O)NC3=O)cc1)O2 (stereo not shown) [Troglitazone]
- cell viability compared to control cells [1]: decrease in cell viability

Compound: FGF2: fibroblast growth factor used for hepatic specification
- ALB positive cells at day 21 (Cynomolgus IPSCs; 10 ng/ml FGF2 versus FGF10, hepatic specification step): more ALB positive cells than FGF10 treatment
